Entries after “also recorded” stand apart in the source; their conditions may differ.
Key:
[1] = tested on: NRAS mutant melanoma spheroids; test: 3D collagen-embedded melanoma spheroids, live/dead staining; assay type: cell-based, human; settings: 6-thio-dG (5 μM) and Ganetespib (5 μM); day 7
Method: (FIG. 6a) Collagen-embedded melanoma spheroids were treated with DMSO, 6-thio-dG (5 μM) and Gam (5 μM) as in FIGS. 4a-c. On day 7, spheroids were stained with Calcein AM (live cells;
green) and EtBr (dead cells; red) and imaged using an inverted microscope (4×; scale bar=250 μm). Representative merged images from three independent experiments are shown. (FIGS. 6b-d) NRAS mutant M93-047 tumor bearing mice were treated with vehicle control, 6-thio-dG (2.5 mg/kg; ip qd), Gam (12.5 mg/kg; ip qod), or the combination of the two drugs for the indicated days (n=7 mice/group). (FIG. 6b) Average tumor volume over time±SEM is represented. (FIG. 6c) Average tumor weight±SEM after 14 days of treatment. P values were calculated using unpaired Student's t-test. * p<0.05, **p<0.01, ***p<0.005, when comparing vehicle control vs. combination treatment groups. […] Kaplan Meier survival curves of mice treated for 14 days. p-values were calculated by Mantel-Cox logrank test; * p<0.05, **p<0.01, ***p<0.005. (FIG. 6e) Animal weight (grams) before treatment (start of TX) and at the end of the study (End of TX) was assessed and recorded for every mouse enrolled in the study. […] Statistical significance was assessed by unpaired Student's t-test.
Supplementary FIGS. 10a-b. […] Percent cell death was determined by flow cytometry following staining of cells with Annexin V and Propidium iodide. […]

[2] = tested on: NRAS mutant melanoma cells; test: Cell death by flow cytometry (PSVue or Annexin V/PI); assay type: cell-based; settings: TERT shRNA 7 dpi; 5 μM Gamitrinib for 48 h
Method: (FIG. 2d) NRASmut melanoma cells and non-transformed human fibroblasts were treated with 1 or 5 μM 6-thio-dG for 7 or 14 days. Cell death was assessed by PSVUe staining. Percent of apoptotic cells is shown. […] (FIGS. 2f-g) Cells were treated with 1 μM 6-thio-dG for 7 days. […] Data represent average from three independent experiments±SEM. *p<0.05; **p<0.01; ***p<0.005 in unpaired Student's t-test.
(FIG. 3f) SOD2 was silenced using shRNA. Transduced M93-047 cells were treated with DMSO or 1 μM of 6-thio-dG and cell death was assessed by Annexin V/PI straining. (FIG. 3g) M93-047 cells were transduced with a SOD2 lentiviral construct or empty vector control (pLX304). Transduced cells were treated with increasing doses (1, 2.5 and 5 μM) of 6-thio-dG for 7 days and cell death was assessed. Data represent average from three independent experiments±SEM. *p<0.05; **p<0.01; ***p<0.005 in unpaired Student's t-test.
(FIG. 4a) NRASmut melanoma cells transduced with TERT shRNA were treated 7 days post infection with 5 μM Gamitrinib (Gam) for 48 h. Cell death was assessed by Annexin V and PI staining. (FIG. 4b) NRASmut melanoma cells and non-transformed fibroblasts were treated with 1 μM 6-thio-dG for 5 days. At day 5, culture medium was replaced and cells treated with 1 μM 6-thio-dG plus 5 μM Gam for two more days. Cells were stained with Annexin V and PI and percent cell death was determined by flow cytometry. […] Data represent average of three independent experiments ±SEM. P values were calculated using unpaired Student's t-test; * p<0.05; ***p<0.005.
(Supplementary FIG. 10a) NRASmut melanoma cells were treated with 6-thio-dG (1 μ) for 7 days total. At day 5, culture medium was replaced and cells were treated with 1 μM 6-thio-dG plus 1 mM Phenformin for two more days. Percent cell death was determined by flow cytometry following staining of cells with Annexin V and Propidium iodide. Data represent average of three independent experiments +/−SEM. *p<0.05 in unpaired Student's t-test.

[3] = tested on: NRAS-WT/BRAF-WT melanoma cells; test: Cell death, Annexin V/PI; assay type: cell-based, human; settings: single agents or combination; 1 μM 6-thio-dG, 5 μM Gam
[4] = tested on: NRAS-WT/BRAF-mut melanoma cells; test: Cell death, Annexin V/PI; assay type: cell-based, human
NRAS mutant SKNAS cells = test: Cell death, Annexin V/PI; assay type: cell-based, human; settings: single agents or combination; 1 μM 6-thio-dG, 5 μM Gam
KRAS mutant HCT116 cells = test: Cell death, Annexin V/PI; assay type: cell-based, human; settings: 1 μM 6-thio-dG, 5 μM Gam
KRAS mutant A549 cells = test: Cell death, Annexin V/PI; assay type: cell-based, human; settings: 1 μM 6-thio-dG, 5 μM Gam
SOD2 = settings: cited from earlier work
NRAS mutant cells = settings: cited from earlier work
BRAF-mutant melanoma = settings: cited from earlier work
[5] = tested on: NRAS mutant melanoma cells; test: Telomere dysfunction-induced foci (TIF) assay; assay type: cell-based, human; settings: WM3000 transduced with TERT shRNA; NAC 1 mM for 7 days
Method: Supplementary FIGS. 6a-b. […] NRAS mutant melanoma cells WM3000 were transduced with TERT shRNA and treated with NAC […] for 7 days. (Supplementary FIG. 6a) TIFs were assessed by indirect immunofluorescence combined with fluorescence in situ hybridization (FISH). Representative images are shown (scale bar=10 μm). (Supplementary FIG. 6b) Quantification of TIF positive cells. Cells were scored as TIF positive when three or more y-H2AS foci (green) were co-localizing with telomere foci (red). Data represent average of thirteen fields imaged +/−SD.
Supplementary FIGS. 8a-d. NRAS mutant melanoma cells are sensitive to the telomere uncapping agent 6-thio-dG. NRAS^mut melanoma cells were treated with 6-thio-dG for 6, 12 or 18 days. (Supplementary FIG. 8a) Relative cell number was assessed by Cyrstal Violet assay and calculated relative to DMSO-treated cells. […] (Supplementary FIG. 8c) NRAS^mut cells were treated with 6-thio-dG for 7 days and telomere-induced foci (TIF) were determined by indirect immunofluorescence combined with fluorescence in situ hybridization (FISH). […] (Supplementary FIG. 8d) Quantification of TIF assay. Cells were scored as TIF-positive when four or more γ-H2AX foci (green) were co-localizing with telomere foci (red). […] P values were calculated by unpaired Student's t-test.
DNA damage and telomere dysfunction assay (TIF). […] Mean fluorescence staining was quantified by flow cytometry. […]

In the case of CC(C)c1cc(-c2n[nH]c(=O)n2-c2ccc3c(ccn3C)c2)c(O)cc1O [ganetespib], the “enhancement of 6-thio-dG efficacy in spheroids” value [1] is reported as “did not substantially enhance the efficacy”.

In the case of Gamitrinib [reference compound], the “cytotoxic effects in TERT depleted cells” value [2] is reported as “enhanced the cytotoxic effects”, the cell death [3] is reported as “did not induce cell death” and the “cell death (in words)” value ([4]; 1 μM 6-thio-dG, 5 μM Gam) is reported as “highly sensitive”. The cell death ([4]; Gamitrinib alone, 5 μM) was 75-80%, the cell death (NRAS mutant SKNAS cells) was “triggered significant death” and the cell death (KRAS mutant HCT116 cells) was “did not induce substantial death”. For the same compound, the cell death (KRAS mutant A549 cells) was “did not induce substantial death”, the SOD2 levels (SOD2) was “downregulate SOD2 levels” and the “anti-cancer activity as a single agent” value (NRAS mutant cells) was “limited activity”. For the same compound, the anti-cancer efficacy (BRAF-mutant melanoma) was “efficacy”.

With CC(=O)N[C@@H](CS)C(=O)O [NAC, N-acetyl-L-cysteine] the “number of TIF in TERT depleted cells” value [5] was “attenuates TIFs; also recorded: attenuated the number of TIF”.

Reference: patent US20210113602A1, “USE OF 6-THIO-2'-DEOXYGUANOSINE (6-THIO-dG) TO TREAT MELANOMA” (The Board of Regents of the University of Texas System, priority 2018, published 2021)
